Test results published in patent US20080026003A1, “Methods for inhibiting pain” (The General Hospital Corporation, priority 2000, published 2008).
Entries after “also recorded” stand apart in the source; their conditions may differ. Blank lines part the entries; values can stand above or below the compound they belong to.

Key:
[1] = tested on: CFA-induced inflammatory pain in rats; settings: non-inflamed animals; Ji et al., 1999; cited from earlier work
[2] = tested on: Cox-2 mRNA; assay: Cox-2 mRNA in lumbar spinal cord after intraplantar CFA (RNase protection assay); assay type: in vivo, rat
Protocol: The extent of Cox-2 induction in the central nervous system following unilateral hindpaw inflammation evoked by complete Freund's adjuvant (CFA) was investigated. CFA (100 μl, Sigma) was injected into the left rat hindpaw of rats anaesthetized with 2% halothane. The level of Cox-2 mRNA was measured using RNase protection assays which were performed on total RNA extracts from spinal cord samples using the RPA III kit (Ambion). […] At least two assays were used for each observation, and the fold change in Cox-2 mRNA levels was determined with respect to a β-actin loading control.
To further support the role of central IL-1β in induction of Cox-2, the effect of inhibiting IL-1β activity was determined.

[3] = tested on: Cox-2 mRNA; assay: Cox-2 mRNA in isolated spinal cord slice in vitro; assay type: cell-based, rat; settings: 200 ng/ml; in vitro spinal cord slice
Protocol: Two mechanisms may contribute to central Cox-2 induction in response to peripheral inflammation: 1) sensory inflow from nerve fibers innervating the inflamed hindpaw or 2) circulating pro-inflammatory cytokines. To determine whether primary sensory neuron activity increases central Cox-2, an isolated adult rat spinal cord slice preparation with an attached dorsal root was analyzed (FIG. 5A). To prepare this spinal cord slice, the lumbar spinal cord from an adult rat under urethane anesthesia was removed and immersed in cold Kreb's solution. A 700-μm-thick transverse slice with attached L4 dorsal root (15-20 mm) was prepared and perfused with Kreb's solution saturated with 95% O2 and 5% CO2 at 36-37° C. (Baba et al., J Neurosci 19:859, 1999). The L4 dorsal root was electrically stimulated for 30 minutes using a suction electrode at 20 μA (0.05 ms, 50 Hz) for Aβ-fibers, 100 μA (0.05 ms, 50 Hz) for […] 1000 μA (0.5 ms, 50 Hz) for C-fibers. The slices were perfused with Kreb's solution for two hours before electrical stimulation, and for three hours after stimulation.

[4] = tested on: CFA inflamed hindpaw of rats; assay: Mechanical (von Frey) and thermal (radiant heat) sensitivity after Cox-2 or caspase-1 inhibitor
Protocol: Thermal sensitivity was assessed by applying a beam of radiant heat and recording the paw withdrawal latency (Decosterd et al., supra).

[5] = tested on: p-p38 and VR1; assay: p-p38 and VR1 in DRG after intrathecal NGF; assay type: in vivo, rat; settings: for NGF-induced VR1 increase: 1 μg co-administered with NGF twice a day for three days
Protocol: L4 and L5 DRGs and L4-L5 spinal cord segments were dissected. DRG and transverse spinal cord sections (20 μm) were cut and processed for immunohistochemistry using the previously described ABC method (Ji et al., Nat. Neurosci. 2:1114-1119, 1999), with polyclonal anti-p38 and phospho-p38 (1:300, New England BioLabs) and polyclonal anti-VR1 antibodies (1:5000, Kindly provided by Glaxso Welcome and Dr. David Julius). For colocalization studies, immunofluorescence was performed to analyze the double staining between antibodies reactive with phosphop38 (anti-rabbit, 1:300) and VR1 (anti-guinea pig, 1:3000, Neuromics) or P2X3 (anti-guinea pig, 1:3000, Neuromics) or NeuN (anti-mouse, 1:3000, Chemicon). This double immunofluorescence was performed as previously described (Ji et al., 2001, supra). Briefly, DRG and spinal sections were incubated with a mixture of two primary antibodies overnight at 4° C. and then incubated with a mixture of FITC- and CY3-congugated secondary antibodies (1:300, Jackson immunolab) for two hours at room temperature. A Tyramide Signal Amplification (TSA, NEN) kit was used to perform double staining with two polyclonal rabbit antibodies (phospho p38 and TrkA) as previously reported (Amaya et al., Mol. Cell Neurosci 15:331-342, 2000). The images of immunostained DRG sections were captured with a CCD camera. The intensity of immunostaining was measured with computer-assisted software (IP lab), and the number of immunoreactive neuronal profiles was counted in a blinded fashion. […] Instead, the results provide a way to evaluate differences in staining levels between control and treated animals. To prevent variations due to experimental conditions, the control and treated DRG sections were mounted on the same slides and processed under the same conditions. […] As previously reported (Ji et al., 1999, supra), every fifth section was picked from a series of consecutive DRG sections (20 μm), and four sections were included for each DRG. The percentage of immnunoreactive neuronal profiles=(number of positive stained neuronal profiles/number of total neuronal profiles)×100.
After CFA-induced inflammation, NGF is produced in the inflamed paw tissue and is retrogradely transported to the cell body of DRG neurons. NGF is critical for gene expression in DRG neurons and plays a major role in inflammatory pain (Lindsay et al., Nature 337: 362-364, 1989; and Woolf et al., Neuroscience 62:327-331, 1994). […] To determine whether NGF is required for the inflammation-induced activation of p38 and upregulation of VR1, NGF antiserum (i.p., 5 μl/g body weight, 84 mg/ml) was injected to neutralize endogenous NGF. […] Intrathecal injection of NGF (2 μg in 10 μl, twice a day for three days, Boeringer) increased both p-p38 levels and VR1 levels in DRG neurons. […]

[6] = tested on: CFA-induced inflammatory pain in rats; assay: Heat and mechanical sensitivity after intrathecal p38 inhibitor; assay type: in vivo, rat; settings: for late phase of inflammation-induced heat hyperalgesia: 24 and 48 hours after CFA
Protocol: (§1) CFA-induced inflammatory pain is characterized by hyperalgesia (i.e., an increased sensitivity to a noxious stimulus) and allodynia (i.e., generation of pain by a normally innocuous stimulus). To examine the involvement of p38 activation in the DRG in inflammatory pain, 10 μl of a specific p38 inhibitor, SB 203580 (1 μg, Calbiochem), was administered into the intrathecal space (close to L4 DRG level) via an intrathecal PP10 catheter. Although p38 inhibitors have an anti-inflammatory action when delivered systematically, localized intrathecal drug administration should not affect inflammation in the paw. To obtain a sustained and stable drug infusion, an Alzet osmotic pump (seven day pump, 0.5 μl/hour) was filled with the p38-inhibitor SB 203580 (1 μg/μl) in saline, and the associated catheter of the pump was implanted intrathecally sixteen hours before CFA injection. Saline was used as vehicle control for the osmotic pump.
To test whether the p38 inhibitor affects basal pain sensitivity, heat and mechanical sensitivity were measured, as previously described (Ji et al., 2001, supra). Briefly, animals were habituated and basal pain sensitivity was tested before drug administration or surgery. Mechanical withdrawal threshold on the plantar surface of the hindpaw was measured with a set of von Frey hairs. […] Thermal paw withdrawal latency was measured using the Hargreaves radiant heat apparatus and averaged over three trials. […] To investigate whether the p38 inhibitor affects established inflammatory pain, SB203580 (1 μg) was intrathecally injected 48 hours after CFA injection. Pain behavior was measured 0.5, 3, and 24 hours after the inhibitor was injected.

[7] = tested on: VR1 protein; assay: VR1 protein in DRG after CFA inflammation (Western blot, immunohistochemistry); assay type: in vivo, rat; settings: for induction of VR1 after inflammation: continuous intrathecal infusion via osmotic pump, two days
Protocol: L4 and L5 DRGs and L4-L5 spinal cord segments were dissected. DRG and transverse spinal cord sections (20 μm) were cut and processed for immunohistochemistry using the previously described ABC method (Ji et al., Nat. Neurosci. 2:1114-1119, 1999), with polyclonal anti-p38 and phospho-p38 (1:300, New England BioLabs) and polyclonal anti-VR1 antibodies (1:5000, Kindly provided by Glaxso Welcome and Dr. David Julius). For colocalization studies, immunofluorescence was performed to analyze the double staining between antibodies reactive with phosphop38 (anti-rabbit, 1:300) and VR1 (anti-guinea pig, 1:3000, Neuromics) or P2X3 (anti-guinea pig, 1:3000, Neuromics) or NeuN (anti-mouse, 1:3000, Chemicon). This double immunofluorescence was performed as previously described (Ji et al., 2001, supra). Briefly, DRG and spinal sections were incubated with a mixture of two primary antibodies overnight at 4° C. and then incubated with a mixture of FITC- and CY3-congugated secondary antibodies (1:300, Jackson immunolab) for two hours at room temperature. A Tyramide Signal Amplification (TSA, NEN) kit was used to perform double staining with two polyclonal rabbit antibodies (phospho p38 and TrkA) as previously reported (Amaya et al., Mol. Cell Neurosci 15:331-342, 2000). The images of immunostained DRG sections were captured with a CCD camera. The intensity of immunostaining was measured with computer-assisted software (IP lab), and the number of immunoreactive neuronal profiles was counted in a blinded fashion. […] Instead, the results provide a way to evaluate differences in staining levels between control and treated animals. To prevent variations due to experimental conditions, the control and treated DRG sections were mounted on the same slides and processed under the same conditions. […]
To determine whether expression of VR1 protein in DRG neurons was induced by peripheral inflammation, the following Western blot analysis was used. […] The density of specific bands was measured and normalized with internal control bands from the loading control. […]

[8] = tested on: CFA-injected paws; assay: CFA-induced paw swelling (paw thickness); assay type: in vivo, rat; settings: intrathecal infusion by osmotic pump started before CFA
Protocol: as §1

[9] = tested on: CFA-induced inflammatory pain in rats; assay: Heat and mechanical sensitivity after intrathecal p38 inhibitor; assay type: in vivo, rat; settings: intrathecal 1 μg 24 hours after CFA treatment; tested 0.5, 3 and 24 hours
[10] = tested on: PGE2; assay: PGE2 levels in cerebrospinal fluid after CFA inflammation (enzyme-immunoassay); assay type: in vivo, rat; settings: for decrease of PGE2 levels in the cerebrospinal fluid: intrathecal
[11] = tested on: p38 and ERK; assay: MAP kinase phosphorylation in primary DRG neuron cultures; assay type: cell-based, rat; settings: culture
Protocol: To investigate the intracellular signaling pathway that leads to the increase in Cox-2 mRNA in the DRG neurons following treatment with IL-1β, the activation of the NFκ-B transcription factor and members of the MAP kinase family in primary DRG neurons was studied. […] Phosphorylated p38 and ERK were visualized by standard Western blot analysis and immunohistochemistry 30 minutes after administration of 10 ng/ml IL-1β to the culture medium (FIG. 12).
After CFA-induced inflammation, NGF is produced in the inflamed paw tissue and is retrogradely transported to the cell body of DRG neurons. NGF is critical for gene expression in DRG neurons and plays a major role in inflammatory pain (Lindsay et al., Nature 337: 362-364, 1989; and Woolf et al., Neuroscience 62:327-331, 1994). […] To determine whether NGF is required for the inflammation-induced activation of p38 and upregulation of VR1, NGF antiserum (i.p., 5 μl/g body weight, 84 mg/ml) was injected to neutralize endogenous NGF. […] Intrathecal injection of NGF (2 μg in 10 μl, twice a day for three days, Boeringer) increased both p-p38 levels and VR1 levels in DRG neurons. […] To test whether NGF acts via p38 to upregulate VR1, the p38 inhibitor SB203580 (1 μg) was co-administrated with NGF (twice a day for three days).

[12] = intrathecal 30 μg, 48 hours after CFA-induced inflammation
[13] = intrathecal infusion before CFA
[14] = intrathecal infusion before CFA, listed as SB 203580
[15] = intrathecal 2 μg twice a day for three days

Compound: COc1cccc(-c2cc(=O)c3ccccc3o2)c1N [PD98059]
- basal pain sensitivity [1]: no significant change

Compound: CS(=O)(=O)Nc1ccc([N+](=O)[O-])cc1OC1CCCCC1 [NS398]
- reduction of mechanical hyperalgesia [4, 12]: 4.2 fold
- thermal hyperalgesia [4, 12]: significantly reduced
- mechanical or thermal pain sensitivity in naive rats ([4]; naive rats): did not alter

Compound: C[S+]([O-])c1ccc(-c2nc(-c3ccncc3)c(-c3ccc(F)cc3)[nH]2)cc1 (stereo not shown) [SB203580]
- NGF-induced VR1 increase [5]: significantly suppressed
- NGF-induced VR1 increase ([5]; listed as 203580): blocked
- established inflammatory pain ([6]; 1 μg intrathecal after CFA, 0.5 hours post-injection): did not affect
- heat hyperalgesia ([6]; 1 μg intrathecal after CFA, 24 hours post-injection): completely reversed
- heat hyperalgesia ([6]; 1 μg intrathecal after CFA, three hours post-injection): started to decrease
- inflammatory heat hyperalgesia ([6]; intrathecal bolus 1 μg twice a day for two days, first 30 minutes prior to CFA): decreased
- mechanical allodynia [6, 13]: did not significantly affect
- late phase of inflammation-induced heat hyperalgesia [6, 13]: alleviated
- late phase of inflammation-induced heat hyperalgesia [6, 14]: reduced
- mechanical allodynia [6, 14]: did not affect
- heat and mechanical sensitivity in non-inflamed rats ([6]; non-inflamed rats, intrathecal): Neither heat nor mechanical sensitivity in non-inflamed rats was affected
- early phase of inflammatory pain ([6]; six hour time point, intrathecal infusion before CFA): did not change
- induction of VR1 after inflammation [7]: inhibited; also recorded: blocked
- induction of VR1 after inflammation ([7]; listed as SB 203580): decreased
- CFA-induced upregulation of VR1 protein (Western blot) ([7]; intrathecal 1 μg twice a day for two days, at two days): blocked
- CFA-induced swelling, based on paw thickness [8]: does not change
- CFA-induced swelling, based on paw thickness ([8]; listed as SB 203085): did not reduce
- inflammatory heat hyperalgesia [9]: delayed inhibition

Second part, led by results:

- reduction of Cox-2 mRNA levels ([2]; intrathecal 6 μg 30 minutes prior to CFA injection, six hours post-inflammation): 75%
Compound: IL-1ra: recombinant IL-1β receptor antagonist (IL-1ra)
- activity-evoked Cox-2 mRNA induction [3]: did not affect

- block of the induction of spinal Cox-2 mRNA ([2]; 30 minute intrathecal pretreatment, 1 nmole (0.5 μg), six hours after peripheral inflammation): 65%
- reduction of the levels of central PGE2 ([10]; intrathecal pretreatment 1 nmole, 12 and 24 hours post-inflammation): 50%
- decrease of PGE2 levels in the cerebrospinal fluid ([10]; 12 hours post inflammation): 50%
- decrease of PGE2 levels in the cerebrospinal fluid ([10]; 24 hours post-inflammation): 70%
Compound: acetyl-Tyr-Val-Ala-Asp-CHO [YVAD]
- normalizing mechanical sensitivity ([4]; intrathecal 1 nmol, CFA inflammation): 12 fold
- thermal withdrawal latency of the CFA inflamed hindpaw ([4]; intrathecal 1 nmol, compared with vehicle): did not significantly affect
- mechanical threshold of the CFA inflamed hindpaw ([4]; intrathecal 1 nmol, compared with vehicle, p<0.05): increased

- p38 activation in adult primary DRG neurons grown in culture [11]: induced
Compound: NGF: nerve growth factor, a known pain mediator, injected intrathecally
- VR1 levels in DRG neurons [5, 15]: increases
- p-p38 levels in DRG neurons [5, 15]: increases
